Experimental data taken from patent US8653276B2 (SANOFI, priority 2008, dated 2014).
Structures can show the parent of a compound that is named as a salt.

SMILES	melting point [°C]
COC(=O)C1(NC(=O)c2ccc(-c3cc(C4CC4)ccc3C)c(-c3ccc(Cl)c(OCCCN(C)C)c3)n2)CCCCC1 (as salt: hydrochloride) [Compound 7, methyl 1-({[6-{4-chloro-3-[3-(dimethylamino)propoxy]phenyl}-5-(5-cyclopropyl-2-methylphenyl)pyridin-2-yl]carbonyl}amino)cyclohexanecarboxylate]	114
COC(=O)C1(NC(=O)c2ccc(-c3ncc(C)cc3Cl)c(-c3ccc(Cl)c(OCCCN(C)C)c3)n2)CCCCC1 (as salt: hydrochloride) [Compound 5, methyl 1-{[(3-chloro-2′-{4-chloro-3-[3-(dimethylamino)propoxy]phenyl}-5-methyl-2,3′-bipyridin-6′-yl)carbonyl]amino}cyclohexanecarboxylate]	152
CCCOc1ccc(Cl)c(-c2ccc(C(=O)NC3(C(=O)OC)CCCCC3)nc2-c2ccc(Cl)c(OCCCN(C)C)c2)c1 (as salt: hydrochloride) [Compound 9, methyl 1-({[6-{4-chloro-3-[3-(dimethylamino)propoxy]phenyl}-5-(2-chloro-5-propoxyphenyl)pyridin-2-yl]carbonyl}amino)cyclohexanecarboxylate]	117

Continued, values first:

melting point [°C]	SMILES
176	COC(=O)C1(NC(=O)c2ccc(-c3ncc(C)cc3C)c(-c3ccc(Cl)c(OCCCN(C)C)c3)n2)CCCCC1 (as salt: hydrochloride) [Compound 13, methyl 1-{[(2′-{4-chloro-3-[3-(dimethylamino)propoxy]phenyl}-3,5-dimethyl-2,3′-bipyridin-6′-yl)carbonyl]amino}cyclohexanecarboxylate]
138	COC(=O)C1(NC(=O)c2ccc(-c3cc4c(cc3C)OCO4)c(-c3ccc(Cl)c(OCCCN(C)C)c3)n2)CCCCC1 (as salt: hydrochloride) [Compound 11, methyl 1-({[6-{4-chloro-3-[3-(dimethylamino)propoxy]phenyl}-5-(6-methyl-1,3-benzodioxol-5-yl)pyridin-2-yl]carbonyl}amino)cyclohexanecarboxylate]
112	CCOc1ccc(Cl)c(-c2ncc(C(=O)N[C@@H](CC(=O)OC)C(C)(C)C)nc2-c2ccc(Cl)c(OCCCN(C)C)c2)c1 (as salt: hydrochloride) [Compound 24, methyl(3S)-3-({[6-{4-chloro-3-[3-(dimethylamino)propoxy]phenyl}-5-(2-chloro-5-ethoxyphenyl)pyrazin-2-yl]carbonyl}amino)-4,4-dimethylpentanoate]
